Key:
ACHN = test: in vitro renal cancer cell growth inhibition (NCI screen)
RPMI-8226 = test: in vitro leukemia cell growth inhibition (NCI screen)
HL-60(TB) = test: as above
HCT-15 = test: in vitro colon cancer cell growth inhibition (NCI screen)
CCRF-CEM = test: in vitro leukemia cell growth inhibition (NCI screen)
OVCAR-3 = test: in vitro ovarian cancer cell growth inhibition (NCI screen)
LOX1MVI = test: in vitro melanoma cell growth inhibition (NCI screen)
DLD-1 = test: in vitro colon cancer cell growth inhibition (NCI screen)
K-562 = test: in vitro leukemia cell growth inhibition (NCI screen)
SW 620 = test: in vitro colon cancer cell growth inhibition (NCI screen)
RXF-393 = test: in vitro renal cancer cell growth inhibition (NCI screen)
SF-268 = test: in vitro CNS cancer cell growth inhibition (NCI screen)
LXFL 529 = test: in vitro non-small cell lung cancer cell growth inhibition (NCI screen)
MOLT-4 = test: in vitro leukemia cell growth inhibition (NCI screen)
SK-MEL-5 = test: in vitro melanoma cell growth inhibition (NCI screen)
UACC-62 = test: as above
M19-MEL = test: as above
NCI-H23 = test: in vitro non-small cell lung cancer cell growth inhibition (NCI screen)
HOP-92 = test: as above
UACC-257 = test: in vitro melanoma cell growth inhibition (NCI screen)
MALME-3M = test: as above
SF-539 = test: in vitro CNS cancer cell growth inhibition (NCI screen)
HCT-116 = test: in vitro colon cancer cell growth inhibition (NCI screen)
NCI-H460 = test: in vitro non-small cell lung cancer cell growth inhibition (NCI screen)
HT 29 = test: in vitro colon cancer cell growth inhibition (NCI screen)
U 251 = test: in vitro CNS cancer cell growth inhibition (NCI screen)
NCI-H522 = test: in vitro non-small cell lung cancer cell growth inhibition (NCI screen)
T-47D = test: in vitro breast cancer cell growth inhibition (NCI screen)
COLO-205 = test: in vitro colon cancer cell growth inhibition (NCI screen)
SR = test: in vitro leukemia cell growth inhibition (NCI screen)
IGROV1 = test: in vitro ovarian cancer cell growth inhibition (NCI screen)
M14 = test: in vitro melanoma cell growth inhibition (NCI screen)
OVCAR-4 = test: in vitro ovarian cancer cell growth inhibition (NCI screen); details: OVACR-4
SK-MEL-2 = test: in vitro melanoma cell growth inhibition (NCI screen)
human tumor cell lines = assay type: cell-based; details: cancer cell line panel
PC-3 = test: in vitro prostate cancer cell growth inhibition (NCI screen)
MCF7/ADR-RES = test: in vitro breast cancer cell growth inhibition (NCI screen)

For `CC(=O)NC1=C(NCCC(C)C)C(=O)c2ccccc2C1=O` [Compound 35], the “cytotoxicity log GI50” value (ACHN) was -7.52 M.
In the case of `CCC(C)NC1=C(NC(C)=O)C(=O)c2ccccc2C1=O` (stereo not drawn) [Compound 30], the “cytotoxicity log GI50” value (RPMI-8226) is reported as -4.87 M, the “cytotoxicity log GI50” value (HL-60(TB)) is reported as -4.76 M and the “cytotoxicity log GI50” value (HCT-15) is reported as -4.34 M. The “cytotoxicity log GI50” value (CCRF-CEM) was -4.66 M, the “cytotoxicity log GI50” value (OVCAR-3) was -4.39 M and the “cytotoxicity log GI50” value (LOX1MVI) was -4.81 M. The “cytotoxicity log GI50” value (DLD-1) was -4.56 M, the “cytotoxicity log GI50” value (K-562) was -4.36 M and the “cytotoxicity log GI50” value (SW 620) was -4.65 M.
In the case of `CCC(C)n1c(C)nc2c1C(=O)c1ccccc1C2=O` (stereo not drawn) [Compound 6], the “cytotoxicity log GI50” value (RXF-393) is reported as -4.57 M, the “cytotoxicity log GI50” value (HL-60(TB)) is reported as -4.84 M and the “cytotoxicity log GI50” value (SF-268) is reported as -4.51 M. The “cytotoxicity log GI50” value (LXFL 529) was -4.48 M, the “cytotoxicity log GI50” value (MOLT-4) was -4.55 M and the “cytotoxicity log GI50” value (SK-MEL-5) was -4.57 M. The “cytotoxicity log GI50” value (UACC-62) was -4.55 M, the “cytotoxicity log GI50” value (HCT-15) was -4.57 M and the “cytotoxicity log GI50” value (CCRF-CEM) was -4.43 M. For the same molecule, the “cytotoxicity log GI50” value (M19-MEL) was -4.74 M, the “cytotoxicity log GI50” value (OVCAR-3) was -4.49 M and the “cytotoxicity log GI50” value (NCI-H23) was -4.48 M. The “cytotoxicity log GI50” value (LOX1MVI) was -4.64 M, the “cytotoxicity log GI50” value (DLD-1) was -4.57 M and the “cytotoxicity log GI50” value (K-562) was -4.47 M. The “cytotoxicity log GI50” value (HOP-92) was -4.66 M, the “cytotoxicity log GI50” value (UACC-257) was -4.55 M and the “cytotoxicity log GI50” value (MALME-3M) was -4.49 M. The “cytotoxicity log GI50” value (SF-539) was -4.49 M, the “cytotoxicity log GI50” value (HCT-116) was -4.50 M and the “cytotoxicity log GI50” value (NCI-H460) was -4.71 M.
In the case of `CCCC(C)n1c(C)nc2c1C(=O)c1ccccc1C2=O` (stereo not drawn) [Compound 9], the “cytotoxicity log GI50” value (HT 29) is reported as -4.76 M, the “cytotoxicity log GI50” value (LXFL 529) is reported as -4.90 M and the “cytotoxicity log GI50” value (SK-MEL-5) is reported as -4.88 M. The “cytotoxicity log GI50” value (UACC-62) was -5.17 M, the “cytotoxicity log GI50” value (HCT-15) was -5.22 M and the “cytotoxicity log GI50” value (M19-MEL) was -4.90 M. For the same molecule, the “cytotoxicity log GI50” value (U 251) was -4.91 M, the “cytotoxicity log GI50” value (NCI-H23) was -4.81 M and the “cytotoxicity log GI50” value (LOX1MVI) was -5.06 M. The “cytotoxicity log GI50” value (DLD-1) was -5.07 M, the “cytotoxicity log GI50” value (K-562) was -5.07 M and the “cytotoxicity log GI50” value (HOP-92) was -4.78 M. The “cytotoxicity log GI50” value (SF-539) was -4.89 M, the “cytotoxicity log GI50” value (HCT-116) was -5.26 M and the “cytotoxicity log GI50” value (NCI-H460) was -5.34 M.
In the case of `CCC(CC)NC1=C(NC(C)=O)C(=O)c2ccccc2C1=O` [Compound 34], the “cytotoxicity log GI50” value (HOP-92) is reported as -6.47 M.
For `COc1ccc(-n2c(CCC(=O)O)nc3c2C(=O)c2ccccc2C3=O)cc1` [Compound 62], the “cytotoxicity log GI50” value (NCI-H522) was -4.46 M, the “cytotoxicity log GI50” value (LOX1MVI) was -4.55 M and the “cytotoxicity log GI50” value (T-47D) was -4.48 M.
For `O=C(O)CCc1nc2c(n1-c1ccccc1)C(=O)c1ccccc1C2=O` [Compound 60], the “cytotoxicity log GI50” value (NCI-H522) was -4.42 M, the “cytotoxicity log GI50” value (T-47D) was -4.19 M and the “cytotoxicity log GI50” value (HOP-92) was -7.65 M. The “cytotoxicity log GI50” value (HCT-116) was -4.30 M.
In the case of `CCC(C)Cn1c(C)nc2c1C(=O)c1ccccc1C2=O` (stereo not drawn) [Compound 13], the “cytotoxicity log GI50” value (HL-60(TB)) is reported as -5.30 M, the “cytotoxicity log GI50” value (LXFL 529) is reported as -4.77 M and the “cytotoxicity log GI50” value (MOLT-4) is reported as -5.54 M. The “cytotoxicity log GI50” value (SK-MEL-5) was -4.82 M, the “cytotoxicity log GI50” value (UACC-62) was -5.00 M and the “cytotoxicity log GI50” value (COLO-205) was -4.70 M. For the same molecule, the “cytotoxicity log GI50” value (HCT-15) was -4.76 M, the “cytotoxicity log GI50” value (M19-MEL) was -4.74 M and the “cytotoxicity log GI50” value (NCI-H23) was -4.68 M. For the same molecule, the “cytotoxicity log GI50” value (LOX1MVI) was -4.71 M, the “cytotoxicity log GI50” value (SR) was -5.55 M and the “cytotoxicity log GI50” value (K-562) was -5.27 M. The “cytotoxicity log GI50” value (HOP-92) was -4.69 M, the “cytotoxicity log GI50” value (SF-539) was -4.75 M and the “cytotoxicity log GI50” value (NCI-H460) was -4.83 M.
For `Cc1nc2c(n1CCO)C(=O)c1ccccc1C2=O` [Compound 16], the “cytotoxicity log GI50” value (NCI-H522) was -4.84 M, the “cytotoxicity log GI50” value (HL-60(TB)) was -4.70 M and the “cytotoxicity log GI50” value (IGROV1) was -4.69 M. The “cytotoxicity log GI50” value (M14) was -4.67 M, the “cytotoxicity log GI50” value (SK-MEL-5) was -4.95 M and the “cytotoxicity log GI50” value (OVCAR-4) was -4.58 M. For the same molecule, the “cytotoxicity log GI50” value (SK-MEL-2) was -4.74 M, the “cytotoxicity log GI50” value (UACC-62) was -4.78 M and the “cytotoxicity log GI50” value (COLO-205) was -4.72 M. The “cytotoxicity log GI50” value (M19-MEL) was -5.59 M, the “cytotoxicity log GI50” value (OVCAR-3) was -4.61 M and the “cytotoxicity against tumor cells (in words)” value (human tumor cell lines) was “comparable to those of compounds 6-14”. The “cytotoxicity log GI50” value (ACHN) was -4.60 M, the “cytotoxicity log GI50” value (NCI-H23) was -4.82 M and the “cytotoxicity log GI50” value (LOX1MVI) was -4.63 M. For the same molecule, the “cytotoxicity log GI50” value (SR) was -4.58 M, the “cytotoxicity log GI50” value (K-562) was -4.59 M and the “cytotoxicity log GI50” value (UACC-257) was -4.78 M. For the same molecule, the “cytotoxicity log GI50” value (MALME-3M) was -4.93 M and the “cytotoxicity log GI50” value (HCT-116) was -4.72 M.
In the case of `Cc1nc2c(n1CC(C)(C)C)C(=O)c1ccccc1C2=O` [Compound 14], the “cytotoxicity log GI50” value (HL-60(TB)) is reported as -4.44 M, the “cytotoxicity log GI50” value (SK-MEL-5) is reported as -4.37 M and the “cytotoxicity log GI50” value (OVCAR-3) is reported as -4.18 M. The “cytotoxicity log GI50” value (LOX1MVI) was -4.25 M, the “cytotoxicity log GI50” value (K-562) was -4.25 M and the “cytotoxicity log GI50” value (HOP-92) was -4.78 M. The “cytotoxicity log GI50” value (NCI-H460) was -4.23 M.
With `Cc1nc2c(n1CCC(C)C)C(=O)c1ccccc1C2=O` [Compound 11] the “cytotoxicity log GI50” value (HL-60(TB)) was -5.22 M, the “cytotoxicity log GI50” value (SF-268) was -4.84 M and the “cytotoxicity log GI50” value (LXFL 529) was -4.88 M. For the same molecule, the “cytotoxicity log GI50” value (MOLT-4) was -5.08 M, the “cytotoxicity log GI50” value (SK-MEL-5) was -4.84 M and the “cytotoxicity log GI50” value (UACC-62) was -4.91 M. The “cytotoxicity log GI50” value (COLO-205) was -4.84 M, the “cytotoxicity log GI50” value (HCT-15) was -4.93 M and the “cytotoxicity log GI50” value (CCRF-CEM) was -4.87 M. The “cytotoxicity log GI50” value (M19-MEL) was -4.84 M, the “cytotoxicity log GI50” value (U 251) was -4.90 M and the “cytotoxicity log GI50” value (LOX1MVI) was -4.83 M. The “cytotoxicity log GI50” value (DLD-1) was -4.95 M, the “cytotoxicity log GI50” value (SR) was -5.33 M and the “cytotoxicity log GI50” value (K-562) was -5.09 M. The “cytotoxicity log GI50” value (SF-539) was -4.92 M, the “cytotoxicity log GI50” value (HCT-116) was -5.17 M and the “cytotoxicity log GI50” value (NCI-H460) was -5.22 M.
With `CCC(C)CNC1=C(NC(C)=O)C(=O)c2ccccc2C1=O` (stereo not drawn) [Compound 37] the “cytotoxicity log GI50” value (SK-MEL-5) was -4.50 M, the “cytotoxicity log GI50” value (M19-MEL) was -4.68 M and the “cytotoxicity log GI50” value (OVCAR-3) was -4.25 M. The “cytotoxicity log GI50” value (NCI-H23) was -4.17 M and the “cytotoxicity log GI50” value (MALME-3M) was -4.45 M.
`CCNC1=C(NC(=O)CC)C(=O)c2ccccc2C1=O` [Compound 45] was tested, and the “cytotoxicity log GI50” value (RXF-393) was -4.32 M, the “cytotoxicity log GI50” value (HT 29) was -4.46 M and the “cytotoxicity log GI50” value (NCI-H522) was -4.34 M. For the same molecule, the “cytotoxicity log GI50” value (M14) was -4.50 M, the “cytotoxicity log GI50” value (SK-MEL-5) was -4.27 M and the “cytotoxicity log GI50” value (COLO-205) was -4.33 M. The “cytotoxicity log GI50” value (HCT-15) was -4.19 M, the “cytotoxicity log GI50” value (CCRF-CEM) was -4.25 M and the “cytotoxicity log GI50” value (OVCAR-3) was -4.49 M. For the same molecule, the “cytotoxicity log GI50” value (PC-3) was -4.37 M, the “cytotoxicity log GI50” value (SW 620) was -4.22 M and the “cytotoxicity log GI50” value (UACC-257) was -4.52 M. For the same molecule, the “cytotoxicity log GI50” value (MCF7/ADR-RES) was -4.23 M, the “cytotoxicity log GI50” value (MALME-3M) was -4.64 M and the “cytotoxicity log GI50” value (HCT-116) was -4.44 M.
In the case of `O=C1c2ccccc2C(=O)c2[nH]c(Cc3ccc(F)cc3)nc21` [Compound 4c], the “cytotoxicity log GI50” value (RXF-393) is reported as -5.16 M, the “cytotoxicity log GI50” value (IGROV1) is reported as -4.90 M and the “cytotoxicity log GI50” value (M14) is reported as -4.82 M. For the same molecule, the “cytotoxicity log GI50” value (OVCAR-4) was -4.83 M, the “cytotoxicity log GI50” value (SK-MEL-2) was -4.86 M and the “cytotoxicity log GI50” value (HCT-15) was -5.19 M. For the same molecule, the “cytotoxicity log GI50” value (OVCAR-3) was -5.27 M, the “cytotoxicity log GI50” value (ACHN) was -4.85 M and the “cytotoxicity log GI50” value (DLD-1) was -5.40 M. For the same molecule, the “cytotoxicity log GI50” value (SW 620) was -4.84 M and the “cytotoxicity log GI50” value (MALME-3M) was -4.84 M.
For `CCCC(C)NC1=C(NC(C)=O)C(=O)c2ccccc2C1=O` (stereo not drawn) [Compound 33], the “cytotoxicity log GI50” value (NCI-H522) was -4.19 M, the “cytotoxicity log GI50” value (SK-MEL-5) was -4.13 M and the “cytotoxicity log GI50” value (M19-MEL) was -4.20 M. For the same molecule, the “cytotoxicity log GI50” value (HOP-92) was -4.32 M and the “cytotoxicity log GI50” value (MALME-3M) was -4.44 M.
